Measurements taken from US8362023B2, “Pyrazolo pyrimidines” (Hoffmann-La Roche Inc., priority 2011, dated 2013).
Counter-ions that a name gives are not always drawn.

Key:
Human DYRK1B = target: T1, Human DYRK1B (Homo sapiens, UniProt Q9Y463); test: DYRK1B Kinase TR-FRET (IMAP-Tb) Assay; type: biochemical; conditions: for IC50: TR-FRET (IMAP-Tb), ATP 70 μM, 37° C. for 60 minutes, averages of multiple runs, read-out: Enzyme IC50 (μM) DYRK1B
T1 construct: purchased Invitrogen PR8350B (former PV4649)
Description: DYRK1B Kinase TR-FRET (IMAP-Tb) Assay Assay Principle The kinase TR-FRET (IMAP-Tb) assay uses a fluorescence labeled substrate peptide in the kinase reaction. Upon phosphorylation by the kinase, phosphopeptide is produced, which will be detected by the binding solution provided in IMAP TR-FRET binding kit. After the completion of the kinase reaction, the reaction will be stopped by adding the binding solution containing terbium tracer. This tracer is immobilized on the surface of the IMAP beads, which also contain metal ions on the beads that bind to the phospho-groups of the products. Thus the phosphorylated product of the reaction can enter into close proximity to the tracer, producing resonance energy transfer. Due to the long lifetime of terbium (Tb) fluorescence the detection can be run in time resolved mode, which virtually eliminates fluorescence interference from assay components or compounds. The TR-FRET signal measurement from this assay, given as an IC50 measurement, is a measure of a test compound's ability to interfere with the phosphorylation of the peptide substrate, that is it inhibits the phosphorylation of the substrate peptide by DYRK1B, and is thus a measure of the test compound's ability to inhibit the activity of DYRK1B. IC50 is the amount of test compound that inhibits 50% of the activity of DYRK1B in this assay. In some cases where the IC50 was not determined, then the % inhibition at 10 μM test compound concentration may be reported. Materials and Reagents • 1. Human DYRK1B: from Invitrogen. Part #PR8350B (former PV4649) • 2. Substrate Peptide: in-house synthesized: RRRFRPASPLRGPPK • 3. IMAP TR-FRET IPP Explorer Kit: from Molecular Devices. Part #R8157 • 4. Kinase Assay Buffer (KAB): 10 mM HEPES pH 7.0, 50 mM NaCl, 5 mM MgCl2, 1 mM DTT, 1 mM NaVO4, 200 μg/mL BSA (0.02%) • 5. Assay Plate: Remp polypropylene clear 384-well microplate. Cat#23490-102 • 6. Detection Plate: Costa black 384-well microplate. Cat #3710 Assay Procedure: this Assay was Performed as Follows: • 1. Transfer 1.5 μL of 20× compound solution to each well of an assay plate. • 2. Add to each well 22.5 μL of KAB Buffer. • 3. Add to each well 3 μL of the solution of DYRK1B and ATP. […] Add to each well 3 μL of the substrate peptide. The assay concentration is 1.0 μM • 5. Incubate the assay plates at 37° C. for 60 minutes. • 6. Add 18 μL of Detection Solution (1:800 diluted Progress bead stock, 1:400 diluted Tb stock, 80% Buffer A, and 20% Buffer B) into each well of detection plates. • 7. Transfer 6 μL of assay solution from the assay plate to the detection plate. • 8. Shake detection plates for 30 minutes. • 9. Read plates in Envision with wavelength set at excitation 340 nm for Tb, emission 490 nm, and […] 520 nm. • 10. Calculation: TR-FRET Signal=(Reading at […]/Reading at 490 nM)×2000000

Human DYRK1A = target: T2, Human DYRK1A (Homo sapiens, UniProt Q13627); test: DYRK1A Kinase TR-FRET (IMAP-Tb) Assay; type: biochemical; conditions: for IC50: TR-FRET (IMAP-Tb), ATP 70 μM, 37° C. for 60 minutes, averages of multiple runs, read-out: Enzyme IC50 (μM) DYRK1A
T2 construct: purchased Invitrogen PV3997
Description: DYRK1A Kinase TR-FRET (IMAP-Tb) Assay
The kinase TR-FRET (IMAP-Tb) assay uses a fluorescence labeled substrate peptide in the kinase reaction. Upon phosphorylation by the kinase, phosphopeptide is produced, which will be detected by the binding solution provided in IMAP TR-FRET binding kit. After the completion of the kinase reaction, the reaction will be stopped by adding the binding solution containing terbium tracer. This tracer is immobilized on the surface of the IMAP beads, which also contain metal ions on the beads that bind to the phospho-groups of the products. Thus the phosphorylated product of the reaction can enter into close proximity to the tracer, producing resonance energy transfer. Due to the long lifetime of terbium (Tb) fluorescence the detection can be run in time resolved mode, which virtually eliminates fluorescence interference from assay components or compounds.
The TR-FRET signal measurement from this assay, given as an IC50 measurement, is a measure of a test compound's ability to interfere with the phosphorylation of the peptide substrate, that is it inhibits the phosphorylation of the substrate peptide by DYRK1A, and is thus a measure of the test compound's ability to inhibit the activity of DYRK1A.
Materials and Reagents • 1. Human DYRK1A: from Invitrogen. Part #PV3997 • 2. Substrate Peptide: […] • 3. IMAP TR-FRET IPP Explorer Kit: from Molecular Devices. Part #R8157 • 4. Kinase Assay Buffer (KAB): 10 mM HEPES pH 7.0, 50 mM NaCl, 5 mM MgCl2, 1 mM DTT, 1 mM NaVO4, 200 ug/mL BSA (0.02%) • 5. Assay Plate: Remp polypropylene clear 384-well microplate. […] Detection Plate: Costa black 384-well microplate.
Assay Procedure: this Assay was Performed as Follows: • 1. Transfer 1.5 μL of 20× compound solution to each well of an assay plate. • 2. Add to each well 22.5 μL of KAB Buffer. • 3. Add to each well 3 μL of the solution of DYRK1A and ATP. […] Add to each well 3 μL of the substrate peptide. The assay concentration is 1.0 μM • 5. Incubate the assay plates at 37° C. for 60 minutes. • 6. Add 18 μL of Detection Solution (1:800 diluted Progress bead stock, 1:400 diluted Tb stock, 80% Buffer A, and 20% Buffer B) into each well of detection plates. • 7. Transfer 6 μL of assay solution from the assay plate to the detection plate. • 8. Shake detection plates for 30 minutes. • 9. Read plates in Envision with wavelength set at excitation 340 nm for Tb, emission 490 nm, and […] 520 nm. • 10.

[1] = at 10 μM test compound concentration, where the IC50 was not determined

T1 sequence (Q9Y463 whole entry): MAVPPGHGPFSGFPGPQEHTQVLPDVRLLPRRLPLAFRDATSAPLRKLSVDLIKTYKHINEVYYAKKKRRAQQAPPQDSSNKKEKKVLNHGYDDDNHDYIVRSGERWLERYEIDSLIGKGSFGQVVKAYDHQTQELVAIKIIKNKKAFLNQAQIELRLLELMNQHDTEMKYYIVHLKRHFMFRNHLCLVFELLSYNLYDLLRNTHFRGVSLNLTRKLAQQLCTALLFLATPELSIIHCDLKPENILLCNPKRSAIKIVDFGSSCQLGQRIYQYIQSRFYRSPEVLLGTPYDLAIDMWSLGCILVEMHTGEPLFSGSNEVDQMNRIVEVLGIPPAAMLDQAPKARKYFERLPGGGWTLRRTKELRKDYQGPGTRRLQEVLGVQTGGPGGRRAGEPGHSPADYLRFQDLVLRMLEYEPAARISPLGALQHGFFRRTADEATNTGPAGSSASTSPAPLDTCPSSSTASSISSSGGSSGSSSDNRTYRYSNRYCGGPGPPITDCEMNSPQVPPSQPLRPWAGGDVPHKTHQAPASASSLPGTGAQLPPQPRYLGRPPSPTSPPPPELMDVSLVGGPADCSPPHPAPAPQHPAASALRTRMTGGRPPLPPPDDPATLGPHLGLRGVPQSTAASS

Compound | IC50 (Human DYRK1B) [µM] | IC50 (Human DYRK1A) [µM] | inhibition at 10 µM (Human DYRK1B; [1]) [%] | inhibition at 10 µM (Human DYRK1A; [1]) [%]
Clc1cccc(CNc2nccc(-c3n[nH]c4nc(NCCN5CCCCC5)ncc34)n2)c1 [Example 93, hydrochloride] | 0.93 | 0.46 | – | –
NCCC(Nc1cccc(-c2n[nH]c3nc(NCCN4CCOCC4)ncc23)n1)c1ccccc1 (stereo not drawn) [Example 75, N1-{6-[6-(2-Morpholin-4-yl-ethylamino)-1H-pyrazolo[3,4-d]pyrimidin-3-yl]-pyridin-2-yl}-1-phenyl-propane-1,3-diamine; hydrochloride] | 2.73 | 2.58 | – | –
c1ccc(CNc2cccc(-c3n[nH]c4nc(NCCN5CCOCC5)ncc34)n2)cc1 [Example 45, [3-(6-Benzylamino-pyridin-2-yl)-1H-pyrazolo[3,4-d]pyrimidin-6-yl]-(2-morpholin-4-yl-ethyl)-amine] | 4.58 | 2.31 | – | –
N[C@H]1CC[C@@H](Nc2ncc3c(-c4ccnc(NCc5cccc(Cl)c5)n4)n[nH]c3n2)CC1 [Example 89, N-{3-[2-(3-Chloro-benzylamino)-pyrimidin-4-yl]-1H-pyrazolo[3,4-d]pyrimidin-6-yl}-cyclohexane-1,4-diamine; hydrochloride] | 0.186 | 0.415 | – | –
Clc1cccc(CNc2nccc(-c3n[nH]c4nc(NC5CCNCC5)ncc34)n2)c1 [Example 86, {3-[2-(3-Chloro-benzylamino)-pyrimidin-4-yl]-1H-pyrazolo[3,4-d]pyrimidin-6-yl}-piperidin-4-yl-amine; hydrochloride] | 0.078 | 0.047 | – | –
c1ccc(CNc2cccc(-c3n[nH]c4nc(NCCN5CCOCC5)ncc34)c2)cc1 [Example 46, [3-(3-Benzylamino-phenyl)-1H-pyrazolo[3,4-d]pyrimidin-6-yl]-(2-morpholin-4-yl-ethyl)-amine] | – | – | 43 | 55
N[C@H]1CC[C@H](Nc2ncc3c(-c4ccnc(NCc5cccc(C(F)(F)F)c5)n4)n[nH]c3n2)CC1 [Example 84, N-{3-[2-(3-Trifluoromethyl-benzylamino)-pyrimidin-4-yl]-1H-pyrazolo[3,4-d]pyrimidin-6-yl}-cyclohexane-1,4-diamine; hydrochloride] | 0.007 | 0.005 | – | –
N[C@H]1CC[C@H](Nc2ncc3c(-c4cccc(NCc5ccsc5)n4)n[nH]c3n2)CC1 [Example 65, N-(3-{6-[(Thiophen-3-ylmethyl)-amino]-pyridin-2-yl}-1H-pyrazolo[3,4-d]pyrimidin-6-yl)-cyclohexane-1,4-diamine; hydrochloride] | < 0.005 | 0.021 | – | –
c1cc(NCc2ccsc2)cc(-c2n[nH]c3nc(NCCN4CCOCC4)ncc23)c1 [Example 51, (2-Morpholin-4-yl-ethyl)-(3-{3-[(thiophen-3-ylmethyl)-amino]-phenyl}-1H-pyrazolo[3,4-d]pyrimidin-6-yl)-amine] | > 10 | 9.02 | – | –
Clc1cccc(CNc2nccc(-c3n[nH]c4nc(NCCN5CCNCC5)ncc34)n2)c1 [Example 92, {3-[2-(3-Chloro-benzylamino)-pyrimidin-4-yl]-1H-pyrazolo[3,4-d]pyrimidin-6-yl}-(2-piperazin-1-yl-ethyl)-amine; hydrochloride] | 0.057 | 0.076 | – | –
Clc1ccc(CNc2cccc(-c3n[nH]c4nc(NCCN5CCOCC5)ncc34)n2)cc1 [Example 48, {3-[6-(4-Chloro-benzylamino)-pyridin-2-yl]-1H-pyrazolo[3,4-d]pyrimidin-6-yl}-(2-morpholin-4-yl-ethyl)-amine] | 2.92 | 2.96 | – | –
NCCC(Nc1cccc(-c2n[nH]c3nc(NCCN4CCOCC4)ncc23)c1)c1ccccc1 (stereo not drawn) [Example 73, N1-{3-[6-(2-Morpholin-4-yl-ethylamino)-1H-pyrazolo[3,4-d]pyrimidin-3-yl]-phenyl}-1-phenyl-propane-1,3-diamine; hydrochloride] | 9.59 | 4.88 | – | –
CN(C)CCNc1ncc2c(-c3ccnc(NCc4cccc(Cl)c4)n3)n[nH]c2n1 [Example 87, N-{3-[2-(3-Chloro-benzylamino)-pyrimidin-4-yl]-1H-pyrazolo[3,4-d]pyrimidin-6-yl}-N′,N′-dimethyl-ethane-1,2-diamine; hydrochloride] | 0.69 | 0.31 | – | –
NCCC(Nc1nccc(-c2n[nH]c3nc(N[C@H]4CC[C@H](N)CC4)ncc23)n1)c1ccccc1 (stereo partly drawn) [Example 68, N-{3-[2-(3-Amino-1-phenyl-propylamino)-pyrimidin-4-yl]-1H-pyrazolo[3,4-d]pyrimidin-6-yl}-cyclohexane-1,4-diamine; hydrochloride] | 0.011 | 0.011 | – | –
OCCNc1ncc2c(-c3ccnc(NCc4cccc(Cl)c4)n3)n[nH]c2n1 [Example 91, 2-{3-[2-(3-Chloro-benzylamino)-pyrimidin-4-yl]-1H-pyrazolo[3,4-d]pyrimidin-6-ylamino}-ethanol; hydrochloride] | 0.183 | 0.25 | – | –
Clc1cccc(CNc2nccc(-c3n[nH]c4nc(NCC5CCNCC5)ncc34)n2)c1 [Example 88, {3-[2-(3-Chloro-benzylamino)-pyrimidin-4-yl]-1H-pyrazolo[3,4-d]pyrimidin-6-yl}-piperidin-4-ylmethyl-amine; hydrochloride] | 0.016 | 0.0089 | – | –
N[C@H]1CC[C@H](Nc2ncc3c(-c4ccnc(NCc5cccc(F)c5)n4)n[nH]c3n2)CC1 [Example 85, N-{3-[2-(3-Fluoro-benzylamino)-pyrimidin-4-yl]-1H-pyrazolo[3,4-d]pyrimidin-6-yl}-cyclohexane-1,4-diamine; hydrochloride] | < 0.0046 | 0.0046 | – | –
Clc1cccc(CNc2nccc(-c3n[nH]c4nc(NCCN5CCCC5)ncc34)n2)c1 [Example 90, {3-[2-(3-Chloro-benzylamino)-pyrimidin-4-yl]-1H-pyrazolo[3,4-d]pyrimidin-6-yl}-(2-pyrrolidin-1-yl-ethyl)-amine; hydrochloride] | 1.32 | 0.536 | – | –
